According to article PMC9154793, “Design, synthesis, and biological evaluation of triazole-pyrimidine-methylbenzonitrile derivatives as dual A2A/A2B adenosine receptor antagonists” (Journal of Enzyme Inhibition and Medicinal Chemistry, 2022):

Legend:
human A2A AR = human A2A AR (Homo sapiens, UniProt P29274); test: cAMP functional assay in CHO-K1/ADORA2A/Gα15 cells (NECA-stimulated, HTRF); assay type: cell-based; details: relative to ZM241385 at 1 μM, mean ± SEM; for inhibition at 0.01 µM / inhibition at 0.1 µM / inhibition at 1 µM: CHO-K1; for inhibition at 0.01 µM: read-out: hA2A AR (%) inhibition of cAMP, 10 nM; for inhibition at 0.1 µM: read-out: hA2A AR (%) inhibition of cAMP, 100 nM; for inhibition at 1 µM: read-out: hA2A AR (%) inhibition of cAMP, 1000 nM;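 on all read-outs here: inhibition of NECA-driven intracellular cAMP build-up in the A2A-expressing cells, quantified with cAMP-d2 plus Eu3+-labelled anti-cAMP detection reagent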
Chain of human A2A AR (P29274 whole entry): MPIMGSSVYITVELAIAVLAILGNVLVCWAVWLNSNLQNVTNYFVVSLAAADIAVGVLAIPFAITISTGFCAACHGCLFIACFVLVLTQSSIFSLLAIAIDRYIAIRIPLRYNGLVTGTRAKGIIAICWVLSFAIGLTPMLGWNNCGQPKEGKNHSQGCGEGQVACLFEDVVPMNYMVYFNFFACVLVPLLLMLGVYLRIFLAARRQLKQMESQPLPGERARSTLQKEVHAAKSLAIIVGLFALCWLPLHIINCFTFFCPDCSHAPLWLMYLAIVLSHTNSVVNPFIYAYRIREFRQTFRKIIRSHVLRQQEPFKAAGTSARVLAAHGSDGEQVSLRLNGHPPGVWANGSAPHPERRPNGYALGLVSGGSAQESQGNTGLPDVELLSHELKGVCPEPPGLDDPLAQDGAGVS
Procedure: (§16) In the cAMP assay, CHO-K1/ADORA2A/Gα15 cells expressing human A2A AR and CHO-K1/ADORA2b/Gα15 cells expressing human A2B AR were activated by 5′-(N-ethylcarboxamido)adenosine (NECA) and triggered the accumulation of intracellular cAMP concentration.
(§17) CHO-K1/ADORA2A/Gα15 cells expressing human A2A AR and CHO-K1/ADORA2b/Gα15 cells expressing human A2B AR were both constructed by Genscript Biotech Corporation. […] The test stock solutions were diluted with different gradients for use. The procedure was exemplified by the cAMP functional assay on the A2A receptor: 10,000 cells/well of CHO-K1/ADORA2A/Gα15 were seeded in a 384-well plate in 20 μl of assay buffer. […] Then, 10 μl of detection reagent (cAMP-d2 and anti-cAMP-Eu3+) was added into each well of the plate and incubated at room temperature for 1 h.

human A2B AR = target: T1, human A2B AR (Homo sapiens, UniProt P29275); test: cAMP functional assay in CHO-K1/ADORA2b/Gα15 cells (NECA-stimulated, HTRF); assay type: cell-based; details: compound at 100 nM, relative to ZM241385 at 1 μM, mean ± SEM; for inhibition at 0.1 µM: CHO-K1, read-out: hA2B AR (%) inhibition of cAMP, 100 nM
T1 sequence (P29275 1-332): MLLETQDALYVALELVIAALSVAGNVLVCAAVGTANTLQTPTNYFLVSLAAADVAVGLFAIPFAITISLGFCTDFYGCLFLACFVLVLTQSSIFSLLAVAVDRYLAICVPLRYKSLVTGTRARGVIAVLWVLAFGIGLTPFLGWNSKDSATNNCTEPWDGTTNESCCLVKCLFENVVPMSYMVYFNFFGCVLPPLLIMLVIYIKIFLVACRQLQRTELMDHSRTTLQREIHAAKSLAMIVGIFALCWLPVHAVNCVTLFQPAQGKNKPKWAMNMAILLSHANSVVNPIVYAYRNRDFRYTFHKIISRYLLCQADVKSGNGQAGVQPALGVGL
Procedure: as §16, §17

[1] = Metabolic stability in human liver microsomes; assay type: in vitro ADME
Procedure: (§1) The metabolic stability is an important focus for further compound optimisation. Compounds 7f, 7i, and AB928 were chosen to evaluate the stability in rat liver microsomes and human liver microsomes. For the microsomal metabolic experiment, 7-ethoxycoumarin (7-EC) was used as a control. As shown in Table 4 (see Supporting information for raw data), the CLint(liver) of 7-EC in rats and humans was 10.0 and 9.0 ml/min/g liver, respectively, indicating the experimental test system was reliable.
(§2) Metabolic stabilities of compounds 7f, 7i, and AB928 in liver microsomes were studied with pooled human (male) liver microsomes solution (20 mg/ml) and male Sprague–Dawley rats pooled liver microsomes solution (20 mg/ml) purchased from Research Institute for Liver Diseases (Shanghai) Co. Ltd. Both liver microsomes solutions (140 μl) were diluted by 3948 μl of water and 280 μl of phosphate buffered saline. The assay procedure: 640 μl of diluted liver microsomes solution was added to a solution of compound working solution (16 μl, 25 μM in DMSO) and the mixed solution was incubated at 37 °C for 5 min. Then 160 μl of NADPH generating system was added and take out 100 μl from the mixed solution was added 200 μl of acetonitrile solution to stop the reaction at the set incubation time (0 min, 10 min, 20 min, 30 min, 40 min, 50 min, and 60 min). All stopped reaction solutions were vortex mixed (3 min) and centrifuged (10,000 rpm, 4 °C for 10 min). Then 50 μl of the supernatant was analysed by UPLC-MS/MS system (details of the analytical method see Supporting information). […]
(§3) 8. Metabolic stability in human and rat liver microsomes
(§4) Metabolic stabilities of compounds 7f, 7i and AB928 in liver microsomes were studied with pooled human (male) liver microsomes solution (20 mg/mL) and male Sprague - Dawley rats pooled liver microsomes solution (20 mg/mL) purchased from Research Institute for Liver Diseases (Shanghai) Co. Ltd. Both liver microsomes solutions (140 μL) were diluted by 3948 μL of water and 280 μL of phosphate buffered saline. The assay procedure: 640 μL of diluted liver microsomes solution was added to a solution of compound working solution (16 μL, 25 μM in DMSO) and the mixed solution was […]
(§5) (1 picture or pasted object on this page, not shown here) […]
(§6) incubated at 37 ℃ for 5 min. Then 160 μL of NADPH generating system was added and take out 100 μL from the mixed solution was added 200 μL of acetonitrile solution to stop the reaction at the set incubation time (0 min, 10 min, 20 min, 30 min, 40 min, 50 min, and 60 min). All stopped reaction solutions were vortex mixed (3 min) and centrifuged (10000 rpm, 4 ℃ for 10 min). Then 50 μL of the supernatant was analyzed […]
(§7) 8.2 Chromatography and mass spectrometry conditions
(§8) UPLC was performed using an […] UPLC system (Waters, Milford, MA, […]
(§9) USA). Separation was achieved on a Waters BEH C18 column(100 mm × 2.1 mm， 1.7 μm) at 40 ℃. The injection volume of the sample solution was 5 μL. The mobile phase consisted of water (0.1% formic acid and ammonium acetate) and acetonitrile solution (20:80, v/v) at a flow rate of 0.4 mL/min within a running time of 6 min. Mass spectrometric analysis was performed on a Waters Xevo TQ-S triple quadrupole instrument using electrospray ionization in positive mode. Quantification was performed using multiple reaction monitoring (MRM) mode to monitor precursor-product ion transitions (Table S1).
(§10) Table S1. Conditions of MRM Detection. […]
(§11) Table S2. Raw data of metabolic stability in human and rat liver microsomes. […]
(§12) (min) Hum Rat Hum Rat Hum Rat Hum Rat
(§13) 9. Analytical method of pharmacokinetics assay
(§14) Animal experiments were performed according to the institutional ethical guidelines on animal care and approved by the Institute Animal Care and Use Committee at Binzhou […]
(§15) Female Bal b/c mice (sourced from Jinan Pengyue Experimental Animal Breeding […]

[2] = Metabolic stability in rat liver microsomes; assay type: in vitro ADME, Sprague–Dawley rats
Procedure: as §1, §2, §3, §4, §5, §6, §7, §8, §9, §10, §11, §12, §13, §14, §15

Molecule | inhibition at 0.01 µM (human A2A AR; compound at 10 nM) | inhibition at 0.1 µM (human A2A AR; compound at 100 nM) | inhibition at 1 µM (human A2A AR; compound at 1000 nM) | melting point | inhibition at 0.1 µM (human A2B AR) | other results
3-(2-Amino-6-(1-((6–(2-(hydroxymethyl)pyrrolidine-1-carbonyl)pyridin-2-yl)methyl)-1H-1,2,3-triazol-4-yl)pyrimidin-4-yl)-2-methylbenzonitrile [Compound 7l] | – | – | – | – | – | hA2A AR (%) inhibition of cAMP, 10 nM (human A2A AR; compound at 10 nM): 13.46 ± 3.71%; hA2A AR (%) inhibition of cAMP, 100 nM (human A2A AR; compound at 100 nM): 52.3 ± 8.46%; hA2A AR (%) inhibition of cAMP, 1000 nM (human A2A AR; compound at 1000 nM): 89.66 ± 1.31%; hA2B AR (%) inhibition of cAMP, 100 nM (human A2B AR): 84.34 ± 4.72%
CCOc1ccc2ccc(=O)oc2c1 [Compound 7-EC, 7-ethoxycoumarin, reference compound] | – | – | – | – | – | CLint(liver) Hum ([1]; human, microsomes): 9.0 mL/min/g; half-life at 0.49 µM ([1]; male, human, microsomes): 8.12 min; remaining at 20 min, 0.49 µM ([1]; male, human, microsomes): 11.5%; remaining at 0.5 h, 0.49 µM ([1]; male, human, microsomes): 3.54%; remaining at 40 min, 0.49 µM ([1]; male, human, microsomes): 1.6%; remaining at 50 min, 0.49 µM ([1]; male, human, microsomes): 0.97%; remaining at 1 h, 0.49 µM ([1]; male, human, microsomes): 0.72%; remaining at 10 min, 0.49 µM ([1]; male, human liver microsomes, 10 min, read-out: %Remaining Hum, 10 min): 34%; remaining at 10 min, 0.49 µM ([2]; male, Sprague-Dawley, pooled rat liver microsomes, rat liver microsomes, 10 min): 49%; remaining at 20 min, 0.49 µM ([2]; male, Sprague-Dawley, pooled rat liver microsomes, rat liver microsomes, 20 min): 23%; remaining at 0.5 h, 0.49 µM ([2]; male, Sprague-Dawley, pooled rat liver microsomes, rat liver microsomes, 30 min): 10.4%; remaining at 40 min, 0.49 µM ([2]; male, Sprague-Dawley, pooled rat liver microsomes, rat liver microsomes, 40 min): 2.98%; remaining at 50 min, 0.49 µM ([2]; male, Sprague-Dawley, pooled rat liver microsomes, rat liver microsomes, 50 min): 1.02%; remaining at 1 h, 0.49 µM ([2]; male, Sprague-Dawley, pooled rat liver microsomes, rat liver microsomes, 60 min, read-out: Remaining (%, T = 60min) Rat): 0.35%; half-life at 0.49 µM ([2]; male, Sprague-Dawley, rat, pooled rat liver microsomes, read-out: T1/2 Rat): 7.26 min; CLint(liver) Rat ([2]; rat liver microsomes): 10.0 mL/min/g
Cc1c(C#N)cccc1-c1cc(-c2cn(Cc3ccc4ccccc4n3)nn2)nc(N)n1 [Compound 7a, 3-(2-Amino-6–(1-(quinolin-2-ylmethyl)-1H-1,2,3-triazol-4-yl)pyrimidin-4-yl)-2-methylbenzonitrile] | 28.2 ± 8.79% | 16.5 ± 1.9% | 43.5 ± 0.77% | 203 to 204 °C | 3.51 ± 3.19% | –
Cc1c(C#N)cccc1-c1cc(-c2cn(Cc3ccc4cccc(N)c4n3)nn2)nc(N)n1 [Compound 7c, 3-(2-amino-6-(1-((8-aminoquinolin-2-yl)methyl)-1H-1,2,3-triazol-4-yl)pyrimidin-4-yl)-2-methylbenzonitrile] | 35.9 ± 5.39% | 38.2 ± 10.8% | 48.5 ± 1.45% | 268 to 269 °C | 85.43 ± 0.04% | –
COC(=O)c1cccc(Cn2cc(-c3cc(-c4cccc(C#N)c4C)nc(N)n3)nn2)n1 [Compound 7d, Methyl 6-((4-(2-amino-6-(3-cyano-2-methylphenyl)pyrimidin-4-yl)-1H-1,2,3-triazol-1-yl)methyl)picolinate] | 40.8 ± 9.01% | 63.4 ± 1.39% | 91.3 ± 4.28% | 105 to 106 °C | 80.3 ± 1.84% | –
Cc1c(C#N)cccc1-c1cc(-c2cn(Cc3cccc(C(=O)OC(C)C)n3)nn2)nc(N)n1 [Compound 7e, Isopropyl 6-((4-(2-amino-6-(3-cyano-2-methylphenyl)pyrimidin-4-yl)-1H-1,2,3-triazol-1-yl)methyl)picolinate] | 45 ± 1.25% | 50.7 ± 5.51% | 67.8 ± 4.91% | 128 to 129 °C | 82.5 ± 7.81% | –
Cc1c(C#N)cccc1-c1cc(-c2cn(Cc3cccc(-c4ncc[nH]4)n3)nn2)nc(N)n1 [Compound 7g, 3-(6-(1-((6-(1H-imidazol-2-yl)pyridin-2-yl)methyl)-1H-1,2,3-triazol-4-yl)-2-aminopyrimidin-4-yl)-2-methylbenzonitrile] | 19.6 ± 2.13% | 56 ± 2.03% | 107.3 ± 0.89% | 139 to 140 °C | 52.9 ± 3.96% | –
Cc1c(C#N)cccc1-c1cc(-c2cn(Cc3cccc(C(=O)O)n3)nn2)nc(N)n1 [Compound 7h, 6-((4-(2-amino-6–(3-cyano-2-methylphenyl)pyrimidin-4-yl)-1H-1,2,3-triazol-1-yl)methyl)picolinic acid] | 37.9 ± 2.32% | 55.2 ± 4.27% | 92.6 ± 1.91% | 176 to 177 °C | 54.8 ± 2.09% | –
Cc1c(C#N)cccc1-c1cc(-c2cn(Cc3cccc(C(=O)NCCO)n3)nn2)nc(N)n1 [Compound 7j, 6-((4-(2-Amino-6-(3-cyano-2-methylphenyl)pyrimidin-4-yl)-1H-1,2,3-triazol-1-yl)methyl)-N-(2-hydroxyethyl)picolinamide] | 22.4 ± 6.68% | 82.2 ± 1.26% | 101 ± 4.62% | 208 to 209 °C | 82.4 ± 4.52% | –
Cc1c(C#N)cccc1-c1cc(-c2cn(Cc3cccc(C(=O)N4CC(O)C4)n3)nn2)nc(N)n1 [Compound 7k, 3-(2-Amino-6-(1-((6–(3-hydroxyazetidine-1-carbonyl)pyridin-2-yl)methyl)-1H-1,2,3-triazol-4-yl)pyrimidin-4-yl)-2-methylbenzonitrile] | 21.7 ± 5.43% | 70.5 ± 6.37% | 94.9 ± 2.05% | – | 78.3 ± 2.66% | –
COc1cccc(Cn2cc(-c3cc(-c4cccc(C#N)c4C)nc(N)n3)nn2)c1 [Compound 7m, 3-(2-Amino-6-(1-(3-methoxybenzyl)-1H-1,2,3-triazol-4-yl)pyrimidin-4-yl)-2-methylbenzonitrile] | 21.5 ± 4.32% | 28.6 ± 4.03% | 69.6 ± 1.01% | 163 to 164 °C | 69.4 ± 4.01% | –
COc1ccc(Cn2cc(-c3cc(-c4cccc(C#N)c4C)nc(N)n3)nn2)cc1 [Compound 7n, 3-(2-Amino-6-(1-(4-methoxybenzyl)-1H-1,2,3-triazol-4-yl)pyrimidin-4-yl)-2-methylbenzonitrile] | 18.8 ± 3.88% | 29.8 ± 0.38% | 54.8 ± 2.41% | 149 to 150 °C | 63.5 ± 4.93% | –
